Data from patent US7598072B2 (priority 2003, dated 2009).
Like-named read-outs stand apart in the source and are kept apart here.

Key:
ASLV [1] = format: cell-based, avian sarcoma and leukosis virus; settings: 3 mM NH4Cl, data not shown
ASLV [2] = settings: 30 mM or higher concentrations of NH4Cl; cited from earlier work
[3] = tested on: HIV [EnvA] pseudotyped virus; assay: HIV [EnvA] cell-free fusion/uncoating reaction, HIV-1 early DNA by real-time PCR; format: biochemical; settings: 4.5 mM, 200 μg 293 S10 fraction, 6 hour incubation
[4] = tested on: ASLV-A vector RCASBP(A)-EGFP; format: biochemical, avian sarcoma and leukosis virus

## Cl.N [NH4Cl, ammonium chloride]
ASLV [1]
  ASLV fusion and entry into cells: unaffected
ASLV [2]
  ASLV fusion and entry into cells: effectively blocked

## Nc1ncnc2c1ncn2[C@@H]1O[C@H](CO[P@](=O)(O)O[P@](=O)(O)O[P@@](=O)(O)S)[C@@H](O)[C@H]1O [adenosine 5′-[γ-thio]triphosphate]
[3]
  effect on stimulation of HIV-1 early DNA synthesis in the cell-free system: markedly reduced
[4]; 2.5 mM, 150 μg 293 S10 fraction, 6 hour incubation
  effect on stimulation of ASLV early DNA synthesis in the cell-free system: markedly reduced

## apyrase
[4]; 10 units/ml apyrase added 30 minutes or later after initiating the cell-free reaction
  effect on amount of ASLV early DNA products: little or no effect
[4]; 10 units/ml apyrase, 150 μg 293 S10 fraction
  effect on amount of ASLV early DNA products: reduced
